This assay concerns the target T1, GST-tagged ROR gamma ligand binding domain (LBD) (Homo sapiens, UniProt P51449).
T1 construct: purchased Invitrogen
T1 sequence (P51449 269-508 limits assumed): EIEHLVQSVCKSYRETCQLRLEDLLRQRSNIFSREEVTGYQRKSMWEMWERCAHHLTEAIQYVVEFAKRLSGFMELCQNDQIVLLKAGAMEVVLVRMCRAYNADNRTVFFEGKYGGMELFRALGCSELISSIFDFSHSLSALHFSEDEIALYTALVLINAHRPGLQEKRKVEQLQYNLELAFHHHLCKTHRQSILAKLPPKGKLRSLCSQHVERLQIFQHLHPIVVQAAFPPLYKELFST
In words: TR-FRET assay for ROR gamma (Lantha Screen, co-activator peptide recruitment). It is filed as biochemical. Conditions: for inhibition at 1 µM: read-out: % inhibition at 1 μM; for inhibition at 10 µM: read-out: % inhibition at 10 μM.

Setting [1] is: class symbols, from dose response curve, read-out: IC50 value.
Setting [2] is: compound concentration 1 μM, TR-FRET ratio 520/495, percent of control.
Setting [3] is: compound concentration 10 μM, TR-FRET ratio 520/495, percent of control.

Like-named read-outs stand apart in the source and are kept apart here.

`O=C(O)c1ccc(-n2nc(Oc3c(Cl)cccc3Cl)c3ccccc32)c(F)c1` [Example 6, 4-[3-(2,6-Dichlorophenoxy)-1H-indazol-1-yl]-3-fluorobenzoic acid]: the IC50 under setting [1] is below 50 nM. The inhibition at 1 µM under setting [2] stood at 99.2%. The inhibition at 10 µM under setting [3] stood at 99.6%.
With `O=C(O)c1ccc(-n2cc(C(=O)c3c(Cl)cccc3Cl)c3c(F)cccc32)c(F)c1` [Example 22, 4-[3-(2,6-Dichlorobenzoyl)-4-fluoro-1H-indol-1-yl]-3-fluorobenzoic acid], the 50% inhibitory concentration (IC50) is below 50 nM, the inhibition at 1 µM amounted to 96.8% and the inhibition at 10 µM stood at 99.3%.
For `O=C(O)c1ccc(-n2nc(C(=O)c3c(Cl)cccc3C3CC3)c3cccnc32)cc1` [Example 37, 4-{3-[(2-Chloro-6-cyclopropylphenyl)carbonyl]-1H-pyrazolo[3,4-b]pyridin-1-yl}benzoic acid], under setting [1], the concentration for half-maximal inhibition (IC50) was below 50 nM. Further, the inhibition at 1 µM under setting [2] turned out to be 97.6%. Further, under setting [3], the inhibition at 10 µM turned out to be 94.6%.
In the case of `CCOC(=O)c1ccc(-n2cc(C(=O)c3c(Cl)cccc3Cl)c3ccccc32)c(F)c1` [Example 39, Ethyl 4-{3-[(2,6-dichlorophenyl)carbonyl]-1H-indol-1-yl}-3-fluorobenzoate], the inhibition at 1 µM came to 15.4% and the inhibition at 10 µM is 25%.
Turning to `O=C(O)c1ccc(-n2cc(C(=O)c3c(Cl)cccc3Cl)c3ccc(F)cc32)c(F)c1` [Example 24, 4-[3-(2,6-Dichlorobenzoyl)-6-fluoro-1H-indol-1-yl]-3-fluorobenzoic acid], under setting [1], the concentration for half-maximal inhibition (IC50) was below 50 nM. Further, the inhibition at 1 µM under setting [2] was 95.8%. In addition, under setting [3], the inhibition at 10 µM worked out at 97.8%.
The corresponding values for `O=C(O)c1ccc(-n2nc(C(=O)c3c(Cl)cccc3C3CC3)c3cccc(F)c32)cc1` [Example 35, 4-{3-[(2-Chloro-6-cyclopropylphenyl)carbonyl]-7-fluoro-1H-indazol-1-yl}benzoic acid] are below 50 nM, 92.3% and 89.2%.
`O=C(O)c1ccc(-n2cc(C(=O)c3c(Cl)cccc3C(F)(F)F)c3ccccc32)c(F)c1` [Example 21, 4-{3-[2-Chloro-6-(trifluoromethyl)benzoyl]-1H-indol-1-yl}-3-fluorobenzoic acid]: the IC50 is below 50 nM, the inhibition at 1 µM was 92.2% and the inhibition at 10 µM amounted to 92.4%.
In the case of `O=C(O)c1ccc(-n2cc(C(=O)c3c(Cl)cccc3Cl)c3cc(F)ccc32)c(F)c1` [Example 23, 4-[3-(2,6-Dichlorobenzoyl)-5-fluoro-1H-indol-1-yl]-3-fluorobenzoic acid], under setting [1], the IC50 was below 50 nM. Under setting [2], the inhibition at 1 µM was found to be 98.2%. Moreover, the inhibition at 10 µM under setting [3] was 96.7%.
The corresponding values for `O=C(O)c1ccc(-n2nc(C(=O)c3c(Cl)cccc3C(F)(F)F)c3cccnc32)cc1` [Example 38, 4-(3-{[2-Chloro-6-(trifluoromethyl)phenyl]carbonyl}-1H-pyrazolo[3,4-b]pyridin-1-yl)benzoic acid] are below 50 nM, 96.8% and 93.5%.
Turning to `O=C(O)c1ccc(-n2cc(C(=O)c3ccccc3Cl)c3ccccc32)cc1` [Example 17, 4-{3-[(2-Chlorophenyl)carbonyl]-1H-indol-1-yl}benzoic acid], the IC50 was in the range of 50 to 100 nM, the inhibition at 1 µM stood at 84.9% and the inhibition at 10 µM stood at 96%.
Consider `O=C(O)c1ccc(-n2cc(C(=O)c3ccccc3F)c3ccccc32)cc1` [Example 15, 4-{3-[(2-Fluorophenyl)carbonyl]-1H-indol-1-yl}benzoic acid], for which the half-maximal inhibitory concentration (IC50) under setting [1] is above 100 nM. The inhibition at 1 µM under setting [2] turned out to be 76.4%. Also, the inhibition at 10 µM under setting [3] is 95.8%.
Turning to `CCCOC(=O)c1ccc(-n2cc(C(=O)c3c(Cl)cccc3Cl)c3ccccc32)c(F)c1` [Example 40, Propyl 4-{3-[(2,6-dichlorophenyl)carbonyl]-1H-indol-1-yl}-3-fluorobenzoate], the inhibition at 1 µM was determined as 9.11%.
Regarding `O=C(O)c1ccc(-n2nc(C(=O)c3c(Cl)cccc3Cl)c3cccc(F)c32)cc1` [Example 32, 4-{3-[(2,6-Dichlorophenyl)carbonyl]-7-fluoro-1H-indazol-1-yl}benzoic acid], under setting [1], the half-inhibitory concentration (IC50) was below 50 nM. In addition, the inhibition at 1 µM under setting [2] is 94.6%. Under setting [3], the inhibition at 10 µM worked out at 90.4%.
On to `O=C(O)c1ccc(-n2nc(C(=O)c3ccccc3)c3ccccc32)c(F)c1` [Example 30, 4-(3-Benzoyl-1H-indazol-1-yl)-3-fluorobenzoic acid], for which, under setting [2], the inhibition at 1 µM amounted to 47.1%. In addition, the inhibition at 10 µM under setting [3] is 88.9%.
`O=C(O)c1ccc(-n2nc(C(=O)c3c(Cl)cccc3Cl)c3cccnc32)cc1` [Example 36, 4-{3-[(2,6-Dichlorophenyl)carbonyl]-1H-pyrazolo[3,4-b]pyridin-1-yl}benzoic acid]: the 50% inhibitory concentration (IC50) under setting [1] is below 50 nM. Under setting [2], the inhibition at 1 µM was 95.7%. In addition, under setting [3], the inhibition at 10 µM turned out to be 96.4%.
For the compound `O=C(O)c1ccc(-n2nc(C(=O)c3c(Cl)cccc3C(F)(F)F)c3ccccc32)c(F)c1` [Example 33, 4-(3-{[2-Chloro-6-(trifluoromethyl)phenyl]carbonyl}-1H-indazol-1-yl)-3-fluorobenzoic acid], the IC50 under setting [1] is below 50 nM. In addition, the inhibition at 1 µM under setting [2] amounted to 98.1%. The inhibition at 10 µM under setting [3] was determined as 94.1%.
Regarding `O=C(O)c1ccc(-n2nc(C(=O)c3c(Cl)cccc3Cl)c3ccccc32)c(F)c1` [Example 31, 4-[3-(2,6-Dichlorobenzoyl)-1H-indazol-1-yl]-3-fluorobenzoic acid], the IC50 under setting [1] is below 50 nM. For the same compound, the inhibition at 1 µM under setting [2] worked out at 96.6%. Under setting [3], the inhibition at 10 µM is 91.6%.
Regarding `CCCCOC(=O)c1ccc(-n2cc(C(=O)c3c(Cl)cccc3Cl)c3cccc(F)c32)c(F)c1` [Example 44, Butyl 4-[3-(2,6-dichloro-benzoyl)-7-fluoro-1H-indol-1-yl]-3-fluorobenzoate], the inhibition at 1 µM is 3.55% and the inhibition at 10 µM came out at 2.25%.
Turning to `CC(C)OC(=O)c1ccc(-n2nc(Oc3c(Cl)cccc3C(F)(F)F)c3ccccc32)c(F)c1` [Example 48, Isopropyl 4-{3-[2-chloro-6-(trifluoromethyl)phenoxy]-1H-indazol-1-yl}-3-fluorobenzoate], the inhibition at 1 µM under setting [2] is 26.3%. Under setting [3], the inhibition at 10 µM was 84.6%.
Consider `O=C(O)c1ccc(-n2nc(C(=O)c3c(Cl)cccc3Cl)c3ccccc32)cc1` [Example 29, 4-[3-(2,6-Dichlorobenzoyl)-1H-indazol-1-yl]benzoic acid], for which the IC50 under setting [1] was below 50 nM. Also, the inhibition at 1 µM under setting [2] was 96.9%. Moreover, the inhibition at 10 µM under setting [3] turned out to be 94.3%.
For `O=C(O)c1ccc(-n2cc(C(=O)c3ccccc3Cl)c3ccccc32)c(F)c1` [Example 20, 4-{3-[(2-Chlorophenyl)carbonyl]-1H-indol-1-yl}-3-fluorobenzoic acid] the same measures were below 50 nM, 95.7% and 100%.
Turning to `Cc1cccc(Oc2nn(-c3ccc(C(=O)O)cc3)c3ccccc23)c1` [Example 3, 4-[3-(3-Methylphenoxy)-1H-indazol-1-yl]benzoic acid], the inhibition at 1 µM under setting [2] is 23.4%. Moreover, under setting [3], the inhibition at 10 µM was determined as 34.6%.

The values are drawn from patent publication US9682977B2, “Bicyclic heteroaryl indole analogues useful as ROR gamma modulators” (Glenmark Pharmaceuticals S.A., priority 2013, dated 2017).
